Measured values from US20020082420A1, “Bicyclic heterocycles, pharmaceutical compositions containing them, their use, and processes for preparing them” (priority 2000, published 2002).

Assays:
human EGF-R = target: T1, human EGF-R (Homo sapiens, UniProt P00533); assay: Inhibition of EGF-dependent proliferation of F/L-HERc cells (Cell Titer 96 assay); assay type: cell-based; settings: F/L-HERc cells (murine IL-3-dependent line expressing human EGF-R), stimulated with EGF 20 ng/ml, 48 hours at 37° C.
T1 construct: expressed in transfected cells; host or cells: F/L-HERc cells (murine IL-3-dependent FDC-P1 line transduced with an LXSN retroviral vector carrying human EGF-R cDNA; packaging line GP+E86)
T1 sequence (P00533 25-1210): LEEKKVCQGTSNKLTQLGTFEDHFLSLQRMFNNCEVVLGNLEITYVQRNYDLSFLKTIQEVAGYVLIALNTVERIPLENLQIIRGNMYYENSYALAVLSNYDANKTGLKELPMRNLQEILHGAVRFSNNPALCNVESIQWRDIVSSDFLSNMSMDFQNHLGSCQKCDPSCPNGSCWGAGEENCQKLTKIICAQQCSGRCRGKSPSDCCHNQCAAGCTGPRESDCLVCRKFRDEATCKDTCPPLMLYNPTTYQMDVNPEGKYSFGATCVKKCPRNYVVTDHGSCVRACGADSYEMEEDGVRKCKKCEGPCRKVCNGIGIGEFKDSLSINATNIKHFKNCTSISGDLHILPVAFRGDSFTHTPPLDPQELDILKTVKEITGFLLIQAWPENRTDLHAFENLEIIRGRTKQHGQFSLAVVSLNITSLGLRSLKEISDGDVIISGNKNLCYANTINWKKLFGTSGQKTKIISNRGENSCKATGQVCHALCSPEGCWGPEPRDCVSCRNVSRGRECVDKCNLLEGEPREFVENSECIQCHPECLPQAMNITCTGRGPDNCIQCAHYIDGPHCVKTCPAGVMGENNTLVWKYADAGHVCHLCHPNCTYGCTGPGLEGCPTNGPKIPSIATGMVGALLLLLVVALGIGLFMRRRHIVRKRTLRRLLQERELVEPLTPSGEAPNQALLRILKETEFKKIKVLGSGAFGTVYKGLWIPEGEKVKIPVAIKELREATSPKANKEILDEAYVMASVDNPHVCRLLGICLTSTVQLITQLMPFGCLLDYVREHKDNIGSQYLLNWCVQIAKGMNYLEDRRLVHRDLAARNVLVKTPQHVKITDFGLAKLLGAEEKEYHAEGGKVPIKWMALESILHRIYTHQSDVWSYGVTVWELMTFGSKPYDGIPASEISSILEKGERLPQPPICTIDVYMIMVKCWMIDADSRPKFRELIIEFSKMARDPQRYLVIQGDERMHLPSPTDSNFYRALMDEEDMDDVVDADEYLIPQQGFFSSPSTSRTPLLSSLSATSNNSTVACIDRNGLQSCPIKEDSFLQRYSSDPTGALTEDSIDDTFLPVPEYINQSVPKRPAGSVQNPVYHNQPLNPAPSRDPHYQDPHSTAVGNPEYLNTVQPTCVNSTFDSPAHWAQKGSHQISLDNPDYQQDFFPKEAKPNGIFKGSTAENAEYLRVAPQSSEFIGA
Description: A cell line of murine origin dependent on interleukin-3-(IL-3) which was genetically modified to express functional human EGF-R was used here. The proliferation of these cells known as F/L-HERc can therefore be stimulated either by murine IL-3 or by EGF (cf T. von Ruiden et al., EMBO J. 7, 2749-2756 (1988) and J. H. Pierce et al., Science 239, 628-631 (1988)).
The starting material used for the F/L-HERc cells was the cell line FDC-P1, the production of which has been described by T. M. Dexter et al., J. Exp. Med. 152. 1036-1047 (1980). Alternatively, however, other growth-factor-dependent cells may also be used (cf., e.g., J.H. Pierce et al., Science 239, 628-631 (1988); H. Shibuya et al., Cell 70, 57-67 (1992); and W. S. Alexander et al., EMBO J. 10, 3683-3691 (1991)). For expressing the human EGF-R cDNA (cf A. Ullrich et al., Nature 309, 418-425 (1984)) recombinant retroviruses were used as described by T. von Ruiden et al., EMBO J. 7, 2749-2756 (1988), except that the retroviral vector LXSN (cf A. D. Miller et al., BioTechniques 7, 980-990 (1989)) was used for the expression of the EGF-R cDNA and the line GP+E86 (cf D. Markowitz et al., J. Virol. 62, 1120-1124 (1988)) was used as the packaging cell.
The test was performed as follows:
F/L-HERc cells were cultivated in RPMI/1640 medium (BioWhittaker), supplemented with 10% fetal calf serum (FCS, Boehringer Mannheim), 2 mM glutamine (BioWhittaker), standard antibiotics and 20 ng/ml of human EGF (Promega), at 37° C. and 5% CO2. In order to investigate the inhibitory activity of the compounds according to the invention, 1.5×10^4 cells per well were cultivated in triplicate in 96-well plates in the above medium (200 μl), the cell proliferation being stimulated with either EGF (20 ng/ml) or murine IL-3. The IL-3 used was obtained from culture supernatants of the cell line X63/0 mIL-3 (cf H. Karasuyama et al., Eur. J. Immunol. 18, 97-104 (1988)). The compounds according to the invention were dissolved in 100% dimethylsulfoxide (DMSO) and added to the cultures in various dilutions, the maximum DMSO concentration being 1%. The cultures were incubated for 48 hours at 37° C.
In order to determine the inhibitory activity of the compounds according to the invention the relative cell number was measured in O.D. units using the Cell Titer 96™ Aqueous Non-Radioactive Cell Proliferation Assay (Promega). The relative cell number was calculated as a percentage of the control (F/LHERc cells without inhibitor) and the concentration of active substance which inhibits the proliferation of the cells by 50% (IC50) was derived therefrom.

Row | IC50 (human EGF-R) | melting point | Structure (SMILES)
1 | 122 nM | 202 to 204 °C | O=C1CN(C2CCC(Nc3ncc4ncnc(Nc5ccc(F)c(Cl)c5)c4n3)CC2)CCO1 (stereo not drawn) [Example 7, 4-[(3-chloro-4-fluorophenyl)amino]-6-{[trans-4-(2-oxomorpholin-4-yl)cvclohex-1-yl]amino}pyrimido[5,4-d]pyrimidine]
2 | 820 nM | 246 to 249 °C (dec.) | O=C(O)CN1CCC(CCNc2ncc3ncnc(Nc4ccc(F)c(Cl)c4)c3n2)CC1 [1(9), 4-[(3-chloro-4-fluorophenyl)amino]-6-{2-[1-(carboxymethyl)piperidin-4-yl]ethylamino}pyrimido[5,4-d]pyrimidine]
3 | 1150 nM | 137 to 139 °C | CCOC(=O)C1CCN(CCNc2ncc3ncnc(Nc4ccc(F)c(Cl)c4)c3n2)CC1 [2(14), 4-[(3-chloro-4-fluorophenyl)amino]-6-{2-[4-(ethoxycarbonyl)piperidin-1-yl]ethylamino}pyrimido[5,4-d]pyrimidine]
4 | 21 nM | 218 °C | COC(=O)CN1CCC(Nc2ncc3ncnc(Nc4cc(Cl)c(N)c(Cl)c4)c3n2)CC1 [2(26), 4-[(4-amino-3,5-dichlorophenyl)amino]-6-({1-[(methoxycarbonyl)methyl]piperidin-4-yl}amino)pyrimido[5,4-d]pyrimidine]
5 | 25 nM | 129 °C | COC(=O)CN1CCC(Nc2ncc3ncnc(Nc4cccc(Cl)c4)c3n2)CC1 [2(23), 4-[(3-chlorophenyl)amino]-6-({1-[(methoxycarbonyl)methyl]piperidin-4-yl}amino)pyrimido[5,4-d]pyrimidine]
6 | 60 nM | 131 to 134 °C | COC(=O)CN(C)[C@H]1CC[C@H](Nc2ncc3ncnc(Nc4ccc(F)c(Cl)c4)c3n2)CC1 [2(7), 4-[(3-chloro-4-fluorophenyl)amino]-6-[(trans-4-{N-[(methoxycarbonyl)methyl]-N-methylamino}cyclohex-1-yl)amino]pyrimido[5,4-d]pyrimidine]
7 | 73 nM | 164 °C | COC(=O)CN1CCC(Nc2ncc3ncnc(Nc4cccc(C)c4)c3n2)CC1 [2(24), 4-[(3-methylphenyl)amino]-6-({1-[(methoxycarbonyl)methyl]piperidin-4-yl}amino)pyrimido[5,4-d]pyrimidine]
8 | 30 nM | 144 °C | COC(=O)CN1CCC(Nc2ncc3ncnc(Nc4cccc(Br)c4)c3n2)CC1 [2(17)]
9 | 77 nM | 167 °C | COC(=O)CN1CCC(Nc2ncc3ncnc(Nc4cc(Br)c(N)c(Br)c4)c3n2)CC1 [2(27), 4-[(4-amino-3,5-dibromophenyl)amino]-6-({1-[(methoxycarbonyl)methyl]piperidin-4-yl}amino)pyrimido[5,4-d]pyrimidine]
10 | 15 nM | 162 to 164 °C | COC(=O)CN1CCC(Nc2ncc3ncnc(Nc4ccc(F)c(Cl)c4)c3n2)CC1 [2(1), 4-[(3-chloro-4-fluorophenyl)amino]-6-({1-[(methoxycarbonyl)methyl]piperidin-4-yl}amino)pyrimido [5,4-d]pyrimidine]
11 | 1030 nM | 128 to 130 °C | CCOC(=O)CN1CCC(CCNc2ncc3ncnc(Nc4ccc(F)c(Cl)c4)c3n2)CC1 [2(13), 4-[(3-chloro-4-fluorophenyl)amino]-6-(2-{1-[(ethoxycarbonyl)methyl]piperidin-4-yl}ethylamino)pyrimido[5,4-d]pyrimidine]
12 | 2510 nM | 190 °C (dec.) | O=C(O)C1CCN(CCNc2ncc3ncnc(Nc4ccc(F)c(Cl)c4)c3n2)CC1 [1(10), 4-[(3-chloro-4-fluorophenyl)amino]-6-[2-(4-carboxypiperidin-1-yl)ethylamino]pyrimido [5,4-d]pyrimidine]
13 | 103 nM | 162 to 164 °C | COC(=O)CN(CC(=O)OC)C1CCC(N(C)c2ncc3ncnc(Nc4ccc(F)c(Cl)c4)c3n2)CC1 (stereo not drawn) [3(12), 4-[(3-chloro-4-fluorophenyl)amino]-6-[N-(trans-4-{N,N′-bis[(methoxycarbonyl)methyl]amino}cyclohex-1-yl)-N-methylamino]pyrimido[5,4-d]pyrimidine]
